Here are results for ten molecules from patent US4950677A, “Benzimidazole derivative compounds and method of making” (Hoffmann-La Roche Inc., priority 1987, dated 1990).

Where two headings read alike, the source gives them in different places. A value given as a limit tells only on which side of the number the result lay.

The ED50 is the dose that gives a 50% effect, or the effect in half of the subjects. Low readings indicate an effect at a small dose, high ones a need for a large dose.

In data set [1] the test system is gastric acid production caused by 4-methylhistamine. Nature of the data set: gastric acid secretion-inhibiting activity (4-methylhistamine-stimulated, Heidenhain pouch). The format is in vivo. The note with it: Canis lupus familiaris, po; p.o. (dry powder in gelatin capsules), conscious beagle hounds, i.v. infusion of 4-methylhistamine; 50% inhibition vs controls. As for the experimental part: The experimental procedure described hereinafter was used to determine the gastric acid secretion-inhibiting activity:
A part of the stomach fundus of female and male beagle hounds is separated from the remainder of the stomach in the form of a pouch of the Heidenhain type by a modification of the method described in Rudick et al., J. Surgical Research 7, 383-398 (1967). In the pouch there is fitted a steel cannula which is conducted externally through the abdominal wall. Before each experiment the animals receive no food for 18 hours, but receive water ad libitum. They are conscious and standing during the experiment and their gastric acid secretion is stimulated by the intravenous infusion of 4-methylhistamine, a selective […] of the histamine H2 -receptors. The gastric acid production is determined in 15 minute fractions of the stomach pouch juice. As soon as the gastric acid production has a constant value, the substances to be tested are administered orally as a dry powder filled into gelatin capsules. The ED50 is that dosage of a test substance which brings about a 50% inhibition of the gastric acid production caused by 4-methylhistamine in the treated animals in comparison to the controls.
(§1) In the following Table there are given for a series of representative compounds of formula I the results of the testing with respect to their anti-ulcer activity and to their gastric secretion inhibiting activity. Moreover, this Table contains data concerning the acute toxicity (LD50 in the case of single oral administration to mice).

Data set [2] can be described thus: acute toxicity (single oral administration). As to conditions: mouse, in vivo, read-out: Toxicity LD 50.
Description: as §1

The subject of data set [3] is indomethacin-induced lesions of the stomach. Nature of the data set: anti-ulcer activity (protection from indomethacin-induced stomach lesions). The format is in vivo. As to conditions: Rattus norvegicus, po, male rats, given 1 hour before and 2 hours after 20 mg/kg indomethacin p.o.; dosage protecting 50% of animals from lesions. As for the experimental part:
The experimental procedure described hereinafter was used to determine the anti-ulcer activity:
A number of groups of 8 male rats each with a body weight of 130-150 g are used for each dosage of a test substance. Prior to the beginning of the experiment the animals receive no food for 24 hours, but receive water ad libitum. Various dosages of the substances to be tested (suspended in 0.5% tragacanth) or the vehicle alone (controls) are administered twice perorally, namely. 1 hour before and 2 hours after the peroral administration 20 mg/kg of indomethacin. In the control animals, this dosage of indomethacin leads to lesions of the stomach within 5 hours. The animals are killed 6 hours after the first administration of the substance under investigation (or of the vehicle alone). The rats which remain protected from the occurrence of macroscopically visible lesions to the mucous membrane of the stomach are counted. The ED50 is that dosage of a test substance at which 50% of the animals are protected from the occurence of such lesions.
as §1

The mark [4] stands for this setting: p.o., single oral administration to mice.

Consider `COc1cc[n+](-c2nc3ccc(C(F)(F)F)cc3[nH]2)c(CSCC(C)(C)OCCO)c1C.CS(=O)(=O)[O-]` [A, 2-[[[2-(2-Hydroxyethoxy)-2-methylpropyl]thio]-methyl]-4-methoxy-3-methyl-1-[5-(trifluoromethyl)-2-benzimidazolyl]pyridinium methanesulfonate], for which the ED50 in data set [1] worked out at 4.9 mg/kg; in data set [3] it was 4.4 mg/kg. In addition, in data set [2] (setting [4]), the LD50 is 2500 to 5000 mg/kg.
Consider `COc1cc[n+](-c2nc3cc(C(F)(F)F)ccc3[n-]2)c(CSCC(C)(C)OCCO)c1C` [B, Intramolecularly deprotonized 2-[[[2-(2-hydroxyethoxy)-2-methylpropyl]thio]methyl]-4-methoxy-3-methyl-1-[5-(trifluoromethyl)-2-benzimidazolyl]pyridinium cation], for which the values for the ED50 in data set [1] and in data set [3] were 3.9 mg/kg and 6.1 mg/kg, respectively. The LD50 in data set [2] (po) fell in the range of 2500 to 5000 mg/kg.
Take `COCCOC(C)(C)CSCc1c(C)c(OC)cc[n+]1-c1nc2ccc(C(F)(F)F)cc2[nH]1.CS(=O)(=O)[O-]` [C, 4-Methoxy-2-[[[2-(2-methoxyethoxy)-2-methylpropyl}thio]methyl]-3-methyl-1-[5-(trifluoromethyl)-2-benzimidazolyl]pyridinium methanesulfonate]: the ED50 in data set [1] was 5.5 mg/kg; in data set [3] it was 6 mg/kg. Moreover, the LD50 in data set [2] (setting [4]) is 1000 to 2000 mg/kg.
With `COCCOC(C)(C)CSCc1c(C)c(OC)cc[n+]1-c1nc2cc(C(F)(F)F)ccc2[n-]1` [D, Intramolecularly deprotonized 4-methoxy-2-[[[2-(2-methoxyethoxy)-2-methylpropyl]thio]methyl]-3-methyl-1-[5-(trifluoromethyl)-2-benzimidazolyl]pyridinium cation], the ED50 worked out at 4.8 mg/kg in data set [1] and 7 mg/kg in data set [3]. Besides, the LD50 in data set [2] (po) was 2500 to 5000 mg/kg.
As to `COc1cc[n+](-c2nc3ccc(C(F)(F)F)cc3[nH]2)c(CSCC(C)(C)OC(C)=O)c1C.CS(=O)(=O)[O-]` [E, 2-[[(2-Acetoxy-2-methylpropyl)thio]methyl]-4-methoxy-3-methyl-1-[5-(trifluoromethyl)-2-benzimidazolyl]pyridinium methanesulfonate], the results for the ED50 in data set [1] and in data set [3] were 3 mg/kg and 3.2 mg/kg, respectively. Further, in data set [2] (setting [4]), the LD50 fell in the range of 2500 to 5000 mg/kg.
For `COc1cc[n+](-c2nc3ccc(C(F)(F)F)cc3[nH]2)c(CSCC(C)(C)OC(C)=O)c1C.[Cl-]` [F, 2-[[(2-Acetoxy-2-methylpropyl)thio]methyl]-4-methoxy-3-methyl-1-[5-(trifluoromethyl)-2-benzimidazolyl]pyridinium chloride], in that order: 1.8 mg/kg, 1.9 mg/kg and 1250 to 2500 mg/kg.
Take `COc1cc[n+](-c2nc3cc(C(F)(F)F)ccc3[n-]2)c(CSCC(C)(C)OC(C)=O)c1C` [G, Intramolecularly deprotonized 2-[[(2-acetoxy-2-methylpropyl)thio]methyl]-4-methoxy-3-methyl-1-[5-(trifluoromethyl)-2-benzimidazolyl]pyridinium cation]: the results for the ED50 in data set [1] and in data set [3] were 1.5 mg/kg and 2.8 mg/kg, respectively. Moreover, the LD50 in data set [2] (po) was 2500 to 5000 mg/kg.
As for `CCOC(C)(C)CSCc1c(C)c(OC)cc[n+]1-c1nc2ccc(C(F)(F)F)cc2[nH]1.CS(=O)(=O)[O-]` [H, 2-[[(2-Ethoxy-2-methylpropyl)thio]methyl]-4-methoxy-3-methyl-1-[5-(trifluoromethyl)-2-benzimidazolyl]pyridinium methanesulfonate], the ED50 was 4.3 mg/kg in data set [1] and 3.2 mg/kg in data set [3].
In the case of `CCOC(C)(C)CSCc1c(C)c(OC)cc[n+]1-c1nc2ccc(C(F)(F)F)cc2[nH]1.[Cl-]` [I, 2-[[(2-Ethoxy-2-methylpropyl)thio]methyl]-4-methoxy-3-methyl-1-[5-(trifluoromethyl)-2-benzimidazolyl]pyridinium chloride], the ED50 in data set [1] stood at 3.8 mg/kg; in data set [3], 4.1 mg/kg. Also, the LD50 in data set [2] (setting [4]) was in the range of 2500 to 5000 mg/kg.
Consider `CCOC(C)(C)CSCc1c(C)c(OC)cc[n+]1-c1nc2cc(C(F)(F)F)ccc2[n-]1` [J, Intramolecularly deprotonized 2-[[(2-ethoxy-2-methylpropyl)thio]methyl]-4-methoxy-3-methyl-1-[5-(trifluoromethyl)-2-benzimidazolyl]pyridinium cation], for which the ED50 in data set [1] worked out at 3.7 mg/kg; in data set [3], 4.6 mg/kg. Besides, in data set [2] (po), the LD50 was above 5000 mg/kg.
